{
  "source": "patent US20170071976A1",
  "about": "“PHARMACEUTICAL SOLUTION HAVING ANTI-TUMOR EFFECT-ENHANCING AND TOXICITY-REDUCING EFFECT, AND PHARMACEUTICAL COMPOSITION COMPRISING SAME” (priority 2014, published 2017)",
  "key": {"[1]": {"tested_on": "superficial bladder cancer (SBC)", "details": "mitomycin dissolved in only a sodium chloride solution, intrabladder perfusion and lavage; cited from earlier work"}, "[2]": {"tested_on": "xenograft tumors from human lung cancer A549 cells", "test": "A549 xenograft in nude mice, intravenous deuterium oxide in combination with gemcitabine", "details": "for Inhibition (%): tumor weight", "protocol": "(§1) Animal: 6 to 7 week-aged female BALB/c nude mice, each weighing 18 to 20 g, provided by Shanghai SLAC Laboratory Animal Co. Ltd.\n(§2) Test drugs: gemcitabine (GEM) and the sodium chloride deuterium oxide solution prepared in Example 1.\n(§3) Tumor cells were resuscitated and inoculated, and sterile sodium chloride physiological solution was added thereto to make a cell suspension which was subcutaneously inoculated into the upper right axillary fossa of animals. 5×10^6 tumor cells were inoculated into each animal.\n(§4) The diameter of xenograft tumors in the nude mice was measured with a vernier caliper, and 10 days after inoculation, when tumors grew to 100 to 110 cm^3, the animals were randomized with 8 mice per group. Meanwhile drugs were administered by injection into tail vein, once every three days, for 21 successive days. By measuring the tumor diameter, the anti-tumor efficacy of test samples was dynamically observed. Meanwhile the body weight of animals was also recorded to observe the toxicity of the test samples. 21 days after administration, the nude mice were sacrificed, and tumors were harvested by surgery, weighed and photographed.\n(§5) 6) Test group 2: gemcitabine (10 mg/kg) diluted in the sodium chloride deuterium oxide solution (10 ml/kg). 7) Test group 3: gemcitabine (10 ml/kg) diluted in the sodium chloride deuterium oxide solution (20 ml/kg)."}, "[3]": {"tested_on": "human lung cancer A549 cells", "test": "Cell cycle by PI single staining (flow cytometry)", "format": "cell-based", "details": "GM 250 nM in NS, 72 hours", "method": "Effect of deuterium oxide on the cell cycle of human lung cancer A549 cells and human colon cancer HCT-116 cells Human lung cancer A549 cells and human colon cancer HCT-116 cells were provided by NANJING […] BIOTECH. CO., LTD., and cultured in an incubator at 37° C., 5% CO2 and saturated humidity. A KGA511 Cell cycle assay kit was provided by NANJING […] BIOTECH. CO., LTD. The flow cytometer was FACS Calibur provided by Becton-Dickinson, US. […] The cell suspension was centrifuged at 800 to 1,000 rpm for 5 min, and the supernatant was discarded; 1.4. A complete culture medium was added to the cell pellet which was well mixed by gentle pipetting, the cell suspension was transferred to a culture flask, and the cells were cultured by supplementing culture medium. […] When all the cells became round, an equal volume of culture medium containing serum was added to cease the digestion; 2.4. The cells were blown by pipetting to suspend, then drawn into a 15 ml centrifugal tube, and centrifuged at 1000 rpm for 5 min; 2.5. […] 1. Cells growing in the exponential phase were digested and inoculated to a 6-well plate; on the next day, after the cells attached to the wall, cell culture media containing corresponding test drugs were added according to different groups, and a negative control group was also set; 2. […] The cells were washed with PBS once (centrifuged at 2,000 rpm for 5 min), and 5×10^5 cells were collected; 4. […] In a detection apparatus, red fluorescence with an excitation wavelength of 488 nm was recorded."}, "[4]": {"tested_on": "human pancreatic cancer PANC-1 cells inoculated into the peritoneal cavity", "test": "Survival of nude mice bearing PANC-1 cells, 42° C. intraperitoneal retention lavage with HP-β-CD or sodium chloride deuterium oxide solution and gemcitabine", "format": "in vivo", "details": "42° C. NS 10 ml/kg + gemcitabine 20 mg/kg, i.p. lavage x 5", "protocol": "Effect of 42° C. hyperthermicintraperitoneal retention lavage with hydroxypropyl-β-cyclodextrin (HP-β-CD) deuterium oxide solution in combination with gemcitabine (GEM) on the survival of nude mice bearing human pancreatic cancer PANC-1 cell.\nAnimal: 4 to 5 week-aged male nude mice, provided by Shanghai SIPPR-BK Laboratory Animal Co. Ltd.\nCell lines: human pancreatic cancer PANC-1 cell line was provided by NANJING KEYGEN BIOTECH.\nModeling: 0.2 ml suspension of pancreatic cancer PANC-1 cells containing 1×10^7 cells/ml (2×10^6 cells in total) was inoculated into the peritoneal cavity of the nude mice.\nGrouping and dosing: the mouse model was established 7 to 8 days after inoculation into the nude mice, and the mice were randomized with 18 animals/group.\nGemcitabine was separately dissolved in the HP-β-CD deuterium oxide solution at 42° C., and in the sodium chloride deuterium oxide solution at 42° C., for intraperitoneal lavage of tumor-bearing mice.\nBlank control group (42° C. sodium chloride physiological solution, 10 ml/kg); 2). Normal chemo group (42° C. sodium chloride physiological solution, 10 ml/kg+gemcitabine 20 mg/kg); 3). Low-dose sodium chloride deuterium oxide solution+gemcitabine group (42° C. sodium chloride deuterium oxide solution, 5 ml/kg+gemcitabine 20 mg/kg); 4). […]"}, "[5]": {"tested_on": "human lung cancer A549 cells", "test": "Cell invasion assayed by Transwell", "format": "cell-based", "details": "invaded A549 cells, control 178.3 ± 13.8", "method": "Cell lines: human colon cancer HCT-116 cells and human lung cancer A549 cells were provided by NANJING […] BIOTECH. CO., LTD. […] The cell suspension was centrifuged at 800 to 1,000 rpm for 5 min, and the supernatant was discarded; 1.4. A complete culture medium was added to the cell pellet which was well mixed by gentle pipetting, the cell suspension was transferred to a culture flask, and the cells were cultured by supplementing culture medium. 1. […] After incubation of cells with the test drugs for 24 hours, serum was removed, and the cells were incubated under starvation with an incomplete culture medium for 24 hours; 3. Matrigel was placed at 4° C. in advance to thaw overnight; 4. Thawed Matrigel was 1:1 diluted with the incomplete culture medium, 30 μl diluted Matrigel was added to the upper compartment of Transwell and incubated at 37° C. for 120 min to gel the Matrigel; 5. Cells from different groups were digested, counted, and then adjusted to a density of 1×10^5 cells/ml with the incomplete culture medium, 100 μl cell suspension was added to the upper compartment (small compartment) of Transwell, and 500 μl medium containing 20% FBS was added to the lower compartment of Transwell; 6. A 24-well cell culture plate was placed in an incubator at 37° C. and 5% CO2 to culture the cells for 24 hours; 7. […] The assay was repeated one more time."}, "[6]": {"tested_on": "xenograft tumors from human breast cancer MCF-7 cells", "test": "MCF-7 xenograft in nude mice, intravenous deuterium oxide in combination with gemcitabine", "format": "in vivo, BALB/c nude mice", "details": "for Body weight (g) End, given as change / Body weight (g) Initial / Bone marrow DNA content (OD): mouse, in vivo; for Inhibition (%): tumor weight", "method": "Ltd. Cell lines: human breast cancer MCF-7 cells were provided by NANJING […] BIOTECH. CO., LTD. […] Bone marrow nucleated cells were isolated by a routine method, DNA was extracted from the cells, the OD value was measured in a UV-260 spectrometer as a representative of the DNA content, and inhibition of DNA synthesis by the test samples was observed. The test used 7 groups in total, with 8 animals per group. […] Statistics: the same as Example 21."}, "[7]": {"tested_on": "xenograft tumors from human lung cancer A549 cells", "details": "mouse, in vivo", "protocol": "as §1, §2, §3, §4, §5"}, "[8]": {"details": "GEM(H) 20 mg/kg × 11, tail vein, 20 mg/kg"}, "[9]": {"details": "GEM(H) 20 mg/kg × 11, tail vein, listed as gemcitabine, 20 mg/kg"}, "[10]": {"details": "GEM(L) 10 mg/kg × 11, tail vein, 10 mg/kg"}, "[11]": {"details": "GEM(L) 10 mg/kg × 11, tail vein, listed as gemcitabine, 10 mg/kg"}, "[12]": {"details": "GEM(H) 20 mg/kg × 11, tail vein"}},
  "note": "Read-outs that look alike come from different tables or passages of the source. Marks after values point to notes of the source that are not given here.",
  "data": [
    {"compound": "CO[C@@]12[C@H](COC(N)=O)C3=C(C(=O)C(C)=C(N)C3=O)N1C[C@@H]1N[C@@H]12", "note": "[mitomycin]", "values": [
      {"measurement": "tumor recurrence rate", "setting": "[1]", "value": 78, "unit": "%"}
    ]},
    {"compound": "Nc1ccn([C@@H]2O[C@H](CO)[C@@H](O)C2(F)F)c(=O)n1", "note": "[Gemcitabine, gemcitabine]", "values": [
      {"measurement": "Tumor weight", "setting": "[2]; [8]", "value": "1.04 ± 0.13", "unit": "g"},
      {"measurement": "Tumor weight", "setting": "[2]; [9]", "value": "1.04 ± 0.13", "unit": "g"},
      {"measurement": "Tumor weight", "setting": "[2]; [10]", "value": "2.23 ± 0.2", "unit": "g"},
      {"measurement": "Tumor weight", "setting": "[2]; [11]", "value": "2.23 ± 0.2", "unit": "g"},
      {"measurement": "Inhibition (%)", "setting": "[2]; [8]", "value": "64.54* %"},
      {"measurement": "Inhibition (%)", "setting": "[2]; [9]", "value": 64.54, "unit": "%"},
      {"measurement": "Inhibition (%)", "setting": "[2]; [10]", "value": 23.64, "unit": "%"},
      {"measurement": "Inhibition (%)", "setting": "[2]; [11]", "value": 23.6, "unit": "%"},
      {"measurement": "G1 Phase", "setting": "[3]", "value": "73.73 ± 3.73", "unit": "%"},
      {"measurement": "G2 Phase", "setting": "[3]", "value": "10.71 ± 2.39", "unit": "%"},
      {"measurement": "S Phase", "setting": "[3]", "value": "15.55 ± 5.51", "unit": "%"},
      {"measurement": "T/C(%)", "setting": "[4]", "value": 150.8, "unit": "%"},
      {"measurement": "MST", "setting": "[4]; control 11.8 ± 2.2", "value": "17.8 ± 1.8", "unit": "days"},
      {"measurement": "Number of cells", "setting": "[5]; GEM 1.95 nM", "value": "160.0 ± 6.6"},
      {"measurement": "Number of cells", "setting": "[5]; GEM 3.9 nM", "value": "112.7 ± 3.5"},
      {"measurement": "Number of cells", "setting": "[5]; GEM 7.8 nM", "value": "59.0 ± 2.0"},
      {"measurement": "Number of cells", "setting": "[5]; GEM 15.6 nM", "value": "51.7 ± 3.1"},
      {"measurement": "Number of cells", "setting": "[5]; GEM 31.2 nM", "value": "37.3 ± 2.3"},
      {"measurement": "Number of cells", "setting": "[5]; GEM 62.5 nM", "value": "22.3 ± 0.6"},
      {"measurement": "Number of cells", "setting": "[5]; GEM 125 nM", "value": "16.0 ± 1.0"},
      {"measurement": "Number of cells", "setting": "[5]; GEM 250 nM", "value": "9.7 ± 2.1"},
      {"measurement": "tumor volume", "setting": "[6]; 21 days after administration, gemcitabine 10 mg/kg alone", "value": "2.757±0.342", "unit": "cm^3"},
      {"measurement": "Tumor weight", "setting": "[6]; [12]", "value": "1.57 ± 0.21", "unit": "g"},
      {"measurement": "Tumor weight", "setting": "[6]; GEM(L) 10 mg/kg × 11, tail vein", "value": "2.48 ± 0.41", "unit": "g"},
      {"measurement": "T/C (relative tumor growth ratio)", "setting": "[6]; gemcitabine 10 mg/kg alone, vs negative control", "value": 60.39, "unit": "%"},
      {"measurement": "Body weight (g) End, given as change", "setting": "[6]; 10 mg/kg", "value": "+2.9 g"},
      {"measurement": "Body weight (g) Initial", "setting": "[6]; 10 mg/kg", "value": 18.0, "unit": "g"},
      {"measurement": "Bone marrow DNA content (OD)", "setting": "[6]; 10 mg/kg", "value": "0.908 ± 0.2543", "unit": "OD"},
      {"measurement": "Body weight (g) End, given as change", "setting": "[6]; 20 mg/kg", "value": "+0.9 g"},
      {"measurement": "Body weight (g) Initial", "setting": "[6]; 20 mg/kg", "value": 18.1, "unit": "g"},
      {"measurement": "Bone marrow DNA content (OD)", "setting": "[6]; 20 mg/kg", "value": "0.823 ± 0.1416", "unit": "OD"},
      {"measurement": "Inhibition (%)", "setting": "[6]; [12]", "value": 61.42, "unit": "%*"},
      {"measurement": "Inhibition (%)", "setting": "[6]; [10]", "value": 39.06, "unit": "%"},
      {"measurement": "Inhibition (%)", "setting": "[6]; [11]", "value": 39.18, "unit": "%"},
      {"measurement": "Body weight (g) End, given as change", "setting": "[7]; 10 mg/kg", "value": "+0.4 g"},
      {"measurement": "Body weight (g) Initial", "setting": "[7]; 10 mg/kg", "value": 18.0, "unit": "g"},
      {"measurement": "Body weight (g) End, given as change", "setting": "[7]; 20 mg/kg", "value": "+0.5 g"},
      {"measurement": "Body weight (g) Initial", "setting": "[7]; 20 mg/kg", "value": 18.4, "unit": "g"}
    ]}
  ]
}
